Measurements: patent publication US8952024B2, “Herbicidal pyrimidone derivatives” (E I du Pont de Nemours and Company, priority 2009, dated 2015)

Experiments:
Assay type in all cases: in vivo
[1] = system: giant foxtail (Setaria faberii); assay: Test A pre-/postemergence plant response
In short: (§1)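 Both pre- and postemergence treatments are applied simultaneously, using chemicals formulated in a non-phytotoxic solvent mixture with surfactant. Postemergence plants are 2–10 cm high with one to two leaves. After approximately ten days in a greenhouse, injury is scored visually from 0 (none) to 100 (complete control) relative to untreated plants.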

[2] = system: corn (Zea mays); assay: Test A pre-/postemergence plant response
In short: as §1

[3] = system: wheat (Triticum aestivum); assay: Test A pre-/postemergence plant response
In short: as §1

[4] = system: barnyardgrass (Echinochloa crus-galli); assay: Test A pre-/postemergence plant response
In short: as §1

[5] = system: morningglory (Ipomoea spp.); assay: Test A pre-/postemergence plant response
In short: as §1

[6] = system: pigweed (Amaranthus retroflexus); assay: Test A pre-/postemergence plant response
In short: as §1

[7] = system: large crabgrass (Digitaria sanguinalis); assay: Test A pre-/postemergence plant response
In short: as §1

[8] = system: velvetleaf (Abutilon theophrasti); assay: Test A pre-/postemergence plant response
In short: as §1

[9] = system: rice (Oryza sativa); assay: Test B flooded paddy test; conditions: for Plant response rating, Rice: Flood (flooded paddy test), 13 to 15 days
In short: (§2)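 Post-flood paddy application: compounds are introduced into water 3 cm deep over the soil, reaching plants at the 2-leaf stage. The water level is maintained, and after 13–15 days under greenhouse conditions, response is judged by eye relative to controls, where 100 means complete control.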

[10] = system: umbrella sedge (Cyperus difformis); assay: Test B flooded paddy test; conditions: for Plant response rating, Sedge, Umbrella: Flood (flooded paddy test), 13 to 15 days
In short: as §2

[11] = system: barnyardgrass (Echinochloa crus-galli); assay: Test B flooded paddy test; conditions: for Plant response rating, Barnyardgrass: Flood (flooded paddy test), 13 to 15 days
In short: as §2

[12] = system: ducksalad (Heteranthera limosa); assay: Test B flooded paddy test; conditions: for Plant response rating, Ducksalad: Flood (flooded paddy test), 13 to 15 days
In short: as §2

[13] = system: winter barley (Hordeum vulgare); assay: Test B postemergence plant response; conditions: Postemergence
In short: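 Plants grown in peat/vermiculite medium were sprayed postemergence at 2–18 cm height (1- to 4-leaf stage). After 13–15 days in the greenhouse, response was rated visually against untreated controls on a 0–100 scale (0 no effect, 100 complete control).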

[14] = Postemergence, 125 g ai/ha, 0 to 100 scale where 0 is no effect and 100 is complete control
[15] = Postemergence, 500 g ai/ha, visual injury, 0 to 100 scale (0 no effect, 100 complete control), approx. ten days
[16] = Preemergence, 125 g ai/ha, 0 to 100 scale, 0 = no effect, 100 = complete control
[17] = Preemergence, 500 g ai/ha, 0 to 100 scale, 0 = no effect, 100 = complete control
[18] = 250 g ai/ha, flooded paddy test, visual rating on 0 to 100 scale (0 no effect, 100 complete control) after 13 to 15 days
[19] = 62 g ai/ha, scale of 0 to 100 where 0 is no effect and 100 is complete control
[20] = 125 g ai/ha, scale 0 to 100, 0 is no effect, 100 is complete control
[21] = Flood, 31 g ai/ha, scale 0 to 100 (0 no effect, 100 complete control)

COCCCn1c(-c2cccc(F)c2)ncc(C(=O)C2=C(O)C3CCC(C3)C2=O)c1=O (stereo not shown) [Compound 238]
50: Plant response rating, Foxtail, Giant [1, 16] | Plant response rating, Corn [2, 17] | Plant response rating, Wheat [3, 14]
10: Plant response rating, Barley ([13]; 31 g ai/ha, 0 to 100 scale (0 no effect, 100 complete control))
90: Plant response rating, Foxtail, Giant [1, 14] | Plant response rating, Foxtail, Giant [1, 17] | Plant response rating, Morningglory [5, 17] | Plant response rating, Crabgrass, Large [7, 14] | Plant response rating, Crabgrass, Large [7, 16] | Plant response rating, Velvetleaf [8, 16]
65: Plant response rating, Sedge, Umbrella [10, 20]
0: Plant response rating, Corn [2, 16] | Plant response rating, Wheat [3, 16] | Plant response rating, Flood, Rice [9, 18] | Plant response rating, Rice [9, 19] | Plant response rating, Rice [9, 20] | Rice plant response rating [9, 21] | Plant response rating, Sedge, Umbrella [10, 19] | Sedge, Umbrella plant response rating [10, 21] | Plant response rating, Barnyardgrass [11, 19] | Barnyardgrass plant response rating [11, 21] | Ducksalad plant response rating [12, 21]
30: Plant response rating, Barnyardgrass [11, 20] | Plant response rating, Barley ([13]; 62 g ai/ha, scale 0 to 100 (0 no effect, 100 complete control))
40: Plant response rating, Corn [2, 14] | Plant response rating, Wheat [3, 17] | Plant response rating, Morningglory [5, 16] | Plant response rating, Flood, Barnyardgrass [11, 18] | Plant response rating, Ducksalad [12, 19] | Plant response rating, Barley ([13]; 250 g ai/ha, scale 0 to 100 (0 no effect, 100 complete control), 13 to 15 days)
80: Corn plant response rating [2, 15] | Wheat plant response rating [3, 15] | Plant response rating, Flood, Sedge, Umbrella [10, 18] | Plant response rating, Ducksalad [12, 20]
70: Plant response rating, Barnyardgrass [4, 16]
100: Foxtail, Giant plant response rating [1, 15] | Plant response rating, Barnyardgrass [4, 14] | Barnyardgrass plant response rating [4, 15] | Plant response rating, Barnyardgrass [4, 17] | Plant response rating, Morningglory [5, 14] | Morningglory plant response rating [5, 15] | Plant response rating, Pigweed [6, 14] | Pigweed plant response rating [6, 15] | Plant response rating, Pigweed [6, 16] | Plant response rating, Pigweed [6, 17] | Crabgrass, Large plant response rating [7, 15] | Plant response rating, Crabgrass, Large [7, 17] | Plant response rating, Velvetleaf [8, 14] | Velvetleaf plant response rating [8, 15] | Plant response rating, Velvetleaf [8, 17] | Plant response rating, Flood, Ducksalad [12, 18]
35: Plant response rating, Barley ([13]; 125 g ai/ha, scale 0 (no effect) to 100 (complete control), 13 to 15 days)
